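Where inhibition never reached the appropriate level, the endpoint shown equals the highest concentration tested. Otherwise, values were interpolated linearly from a five-concentration, 48-hour dose response in 96-well plates. Here, GI50 denotes the concentration required for 50% inhibition of growth.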 The source made the active and inactive calls. Rule as the data show it: active = GI50 up to about 1.1 µM and inactive = higher.
Tests used:
Experiment in all cases: NCI tumour cell line growth inhibition, 48 h
786-0 = test system: 786-0
A498 = test system: A498
A549 = test system: A549
ACHN = test system: ACHN
BT-549 = test system: BT-549
CCRF-CEM = test system: CCRF-CEM
COLO 205 = test system: COLO 205
DU-145 = test system: DU-145
EKVX = test system: EKVX
HCC 2998 = test system: HCC 2998
HCT-15 = test system: HCT-15
HOP-62 = test system: HOP-62
HOP-92 = test system: HOP-92
HT-29 = test system: HT-29
Hs-578T = test system: Hs-578T
IGROV-1 = test system: IGROV-1
K562 = test system: K562
KM12 = test system: KM12
LOX IMVI = test system: LOX IMVI
M14 = test system: M14
MCF7 = test system: MCF7
MDA-MB-231 = test system: MDA-MB-231
MOLT-4 = test system: MOLT-4
Malme-3M = test system: Malme-3M
NCI-H226 = test system: NCI-H226
NCI-H23 = test system: NCI-H23
NCI-H522 = test system: NCI-H522
NCI/ADR-RES = test system: NCI/ADR-RES
OVCAR-4 = test system: OVCAR-4
OVCAR-5 = test system: OVCAR-5
OVCAR-8 = test system: OVCAR-8
RPMI-8226 = test system: RPMI-8226
SF-268 = test system: SF-268
SF-539 = test system: SF-539
SK-MEL-28 = test system: SK-MEL-28
SK-MEL-2 = test system: SK-MEL-2
SK-OV-3 = test system: SK-OV-3
SN12C = test system: SN12C
SNB-19 = test system: SNB-19
SNB-75 = test system: SNB-75
SR = test system: SR
SW-620 = test system: SW-620
T47D = test system: T47D
TK-10 = test system: TK-10
UACC-257 = test system: UACC-257
UACC-62 = test system: UACC-62
UO-31 = test system: UO-31
HCT-116 = test system: HCT-116
HL-60 = test system: HL-60
MDA-N = test system: MDA-N
NCI-H460 = test system: NCI-H460
OVCAR-3 = test system: OVCAR-3
PC-3 = test system: PC-3
RXF 393 = test system: RXF 393
SF-295 = test system: SF-295
CAKI-1 = test system: CAKI-1
MDA-MB-435 = test system: MDA-MB-435
SK-MEL-5 = test system: SK-MEL-5
U-251 = test system: U-251

Measured: GI50

Cc1ccnc2nc(-c3ccc4ccccc4c3)cc(O)c12
inactive: 786-0 1.52 µM | A498 1.49 µM | A549 1.4 µM | ACHN 2.96 µM | BT-549 5.32 µM | DU-145 4.1 µM | EKVX 4.36 µM | HCC 2998 1.65 µM | HOP-62 2.08 µM | Hs-578T 1.44 µM | IGROV-1 1.2 µM | M14 1.22 µM | MDA-MB-231 1.67 µM | Malme-3M 1.14 µM | NCI-H226 2.13 µM | NCI-H23 2.56 µM | NCI/ADR-RES 1.3 µM | OVCAR-4 1.71 µM | OVCAR-5 6.3 µM | OVCAR-8 2.83 µM | SF-268 3.1 µM | SF-539 1.22 µM | SK-MEL-28 1.76 µM | SN12C 4.01 µM | SNB-19 3.77 µM | T47D 7.82 µM | TK-10 1.75 µM | UACC-257 6.75 µM | UO-31 3.26 µM
0.43 µM: HCT-15
active: CCRF-CEM 1.04 µM | COLO 205 0.621 µM | HOP-92 0.592 µM | HT-29 0.8 µM | K562 0.403 µM | KM12 0.452 µM | LOX IMVI 0.818 µM | MCF7 0.258 µM | MOLT-4 0.479 µM | NCI-H522 0.601 µM | RPMI-8226 0.641 µM | SK-MEL-2 0.865 µM | SK-OV-3 1.09 µM | SNB-75 1.03 µM | SR 0.296 µM | SW-620 0.451 µM | UACC-62 0.531 µM

CCc1cc2c(oc3cc4ccccc4cc32)c(=O)[nH]1
inactive: 786-0 > 10 µM | A549 > 10 µM | ACHN > 10 µM | BT-549 > 10 µM | DU-145 > 10 µM | EKVX > 10 µM | HCC 2998 > 10 µM | HCT-116 > 10 µM | HL-60 > 10 µM | HOP-92 > 10 µM | HT-29 > 10 µM | Hs-578T > 10 µM | IGROV-1 > 10 µM | KM12 > 10 µM | LOX IMVI > 10 µM | M14 > 10 µM | MDA-MB-231 > 10 µM | MDA-N > 10 µM | Malme-3M > 10 µM | NCI-H226 > 10 µM | NCI-H460 > 10 µM | NCI-H522 > 10 µM | NCI/ADR-RES > 10 µM | OVCAR-3 > 10 µM | OVCAR-4 > 10 µM | OVCAR-5 > 10 µM | OVCAR-8 > 10 µM | PC-3 > 10 µM | RXF 393 > 10 µM | SF-268 > 10 µM | SF-295 > 10 µM | SF-539 > 10 µM | SK-MEL-2 > 10 µM | SN12C > 10 µM | SNB-19 > 10 µM | SNB-75 > 10 µM | SR > 10 µM | SW-620 > 10 µM | TK-10 > 10 µM | UACC-257 > 10 µM | UO-31 > 10 µM
> 10 µM: HCT-15

CN(C)S(=O)(=O)/N=C/c1cccc(/C=N/S(=O)(=O)N(C)C)c1
> 100 µM: HCT-15
active: SF-295 0.728 µM
inactive: 786-0 > 100 µM | A498 > 100 µM | A549 > 100 µM | ACHN > 100 µM | BT-549 38.1 µM | CAKI-1 > 100 µM | CCRF-CEM 74.8 µM | COLO 205 65.9 µM | DU-145 > 100 µM | EKVX 64.9 µM | HCC 2998 > 100 µM | HCT-116 33.3 µM | HL-60 > 100 µM | HOP-62 > 100 µM | HOP-92 32.1 µM | K562 52.4 µM | KM12 > 100 µM | LOX IMVI > 100 µM | M14 > 100 µM | MCF7 46.7 µM | MDA-MB-231 > 100 µM | MDA-MB-435 44.8 µM | MDA-N 31 µM | MOLT-4 > 100 µM | NCI-H226 > 100 µM | NCI-H23 > 100 µM | NCI-H460 > 100 µM | NCI/ADR-RES 81.7 µM | OVCAR-3 > 100 µM | OVCAR-4 > 100 µM | OVCAR-5 > 100 µM | OVCAR-8 51.3 µM | PC-3 > 100 µM | RPMI-8226 63.1 µM | SF-268 61.5 µM | SF-539 23.9 µM | SK-MEL-28 > 100 µM | SK-MEL-5 55.1 µM | SK-OV-3 > 100 µM | SN12C > 100 µM | SNB-19 > 100 µM | SNB-75 22.9 µM | SW-620 64 µM | T47D > 100 µM | TK-10 > 100 µM | U-251 > 100 µM | UACC-257 > 100 µM | UACC-62 > 100 µM | UO-31 > 100 µM

— ChEMBL document CHEMBL1201862, “PubChem BioAssay data set” (2004)
